Results: ChEMBL document CHEMBL1157847, “Dichloro-4-quinolinol-3-carboxylic acid: synthesis and antioxidant abilities to scavenge radicals and to protect methyl linoleate and DNA” (Eur J Med Chem, 2010)

Tests used:
Type in all cases: functional
[1] = Antioxidant activity assessed as residual ABTS cationic radical scavenging activity at 1.5 mM after 30 mins relative to control
[2] = Antioxidant activity assessed as residual galvinoxyl radical scavenging activity at 1.5 mM after 30 mins relative to control
[3] = tested on: Radical scavenging activity; test: Antioxidant activity assessed as residual DPPH radical scavenging activity at 1.5 mM after 30 mins relative to control
[4] = Antioxidant activity against AAPH-induced linoleic acid oxidation assessed as exhausted methyl linoleate at 2 mM after 4 hrs relative to control
[5] = Antioxidant activity against beta-carotene bleaching assessed as decrease of absorbance at 0.3 mM after 100 mins relative to control; parameters: scale not given: the % may be the effect or the level left
[6] = Antioxidant activity against hydroxyl radical-induced DNA damage assessed as TBARS production at 400 uM after 30 mins relative to control
[7] = Antioxidant activity against AAPH-induced DNA damage assessed as TBARS production at 200 uM after 4 hrs relative to control
[8] = Antioxidant activity against Cu(2+)/GSH-induced DNA damage assessed as TBARS production at 200 uM after 4 hrs relative to control

Row | Structure (SMILES) | Activity [1] [%] | Activity [2] [%] | Activity [3] [%] | Activity [4] [%] | Activity [5] [%] | Activity [6] [%] | Activity [7] [%] | Activity [8] [%]
1 | O=C(O)c1cnc2cc(Cl)ccc2c1O | 102 | 104 | 94.7 | 107 | 91.1 | 102 | 95 | 88.9
2 | O=C(O)c1cnc2c(Cl)ccc(Cl)c2c1O | 99.9 | 104 | 94.1 | 62.7 | 77.3 | 84.6 | 95.4 | 103
3 | O=C(O)c1cnc2c(Cl)cc(Cl)cc2c1O | 104 | 104 | 93.8 | 7.3 | 129 | 83.3 | 99.4 | 95.4
4 | O=C(O)c1cnc2cc(Cl)cc(Cl)c2c1O | 90 | 93.5 | 91.2 | 111 | 77.3 | 92.7 | 98.6 | 98.3
5 | O=C(O)c1cnc2c(Cl)c(Cl)ccc2c1O | 97.5 | 102 | 93.4 | 41.9 | 108 | 88.7 | 97.9 | 111
6 | O=C(O)c1cnc2ccccc2c1O | 101 | 102 | 94.6 | 113 | 77.3 | 90.4 | 103 | 96.6
